Article PMC9030254, “Target Hopping from Protein Kinases to PXR: Identification of Small-Molecule Protein Kinase Inhibitors as Selective Modulators of Pregnane X Receptor from TüKIC Library” (Cells, 2022)

How the values were obtained:
Assay in all cases: Kinase profiling
Assay type in all cases: biochemical
INSR = molecular target: T1, INSR (Homo sapiens, UniProt P06213)
T1 construct: purchased ProQinase (Freiburg, Germany)
Experimental: (§1) The analysis was performed by ProQinase (Freiburg, Germany).

MKK7 = molecular target: T2, MKK7 (Homo sapiens, UniProt O14733)
T2 construct: purchased ProQinase (Freiburg, Germany)
T2 sequence (O14733 1-419): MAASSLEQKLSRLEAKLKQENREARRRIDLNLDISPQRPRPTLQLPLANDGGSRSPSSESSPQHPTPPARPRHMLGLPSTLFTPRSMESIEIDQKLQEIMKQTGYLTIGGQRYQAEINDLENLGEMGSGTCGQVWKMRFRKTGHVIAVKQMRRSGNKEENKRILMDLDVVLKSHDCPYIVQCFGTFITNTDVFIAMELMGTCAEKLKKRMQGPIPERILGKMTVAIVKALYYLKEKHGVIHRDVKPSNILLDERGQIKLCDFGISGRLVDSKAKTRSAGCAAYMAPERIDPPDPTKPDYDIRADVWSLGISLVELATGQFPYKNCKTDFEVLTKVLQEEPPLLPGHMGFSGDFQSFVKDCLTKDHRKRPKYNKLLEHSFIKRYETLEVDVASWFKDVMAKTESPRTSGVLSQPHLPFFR
Experimental: as §1

WNK3 = molecular target: T3, WNK3 (Homo sapiens, UniProt Q9BYP7)
T3 construct: purchased ProQinase (Freiburg, Germany)
Experimental: as §1

BRK = molecular target: T4, BRK (Homo sapiens, UniProt Q13882)
T4 construct: purchased ProQinase (Freiburg, Germany)
Experimental: as §1

PKCiota = molecular target: T5, PKCiota (Homo sapiens, UniProt P41743)
T5 construct: purchased ProQinase (Freiburg, Germany)
T5 sequence (P41743 1-596): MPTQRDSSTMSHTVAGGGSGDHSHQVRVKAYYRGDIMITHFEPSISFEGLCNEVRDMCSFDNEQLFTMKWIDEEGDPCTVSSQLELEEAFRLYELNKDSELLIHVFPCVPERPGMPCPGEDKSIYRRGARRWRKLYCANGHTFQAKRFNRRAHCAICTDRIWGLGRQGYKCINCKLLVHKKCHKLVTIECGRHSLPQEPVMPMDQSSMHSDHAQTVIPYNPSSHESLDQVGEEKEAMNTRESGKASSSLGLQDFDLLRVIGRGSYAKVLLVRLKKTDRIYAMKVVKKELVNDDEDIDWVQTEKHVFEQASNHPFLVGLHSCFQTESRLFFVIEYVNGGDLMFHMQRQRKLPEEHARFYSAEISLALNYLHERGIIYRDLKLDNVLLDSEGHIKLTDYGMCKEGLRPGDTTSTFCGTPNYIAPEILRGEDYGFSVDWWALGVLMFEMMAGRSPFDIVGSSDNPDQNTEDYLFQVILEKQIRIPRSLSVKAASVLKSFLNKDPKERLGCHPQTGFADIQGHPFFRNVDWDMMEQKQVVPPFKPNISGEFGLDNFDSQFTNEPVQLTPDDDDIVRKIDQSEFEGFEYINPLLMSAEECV
Experimental: as §1

RIPK2 = molecular target: T6, RIPK2 (Homo sapiens, UniProt O43353)
T6 construct: purchased ProQinase (Freiburg, Germany)
Experimental: as §1

CDK7/CycH/MAT1 = molecular target: T7, CDK7/CycH/MAT1 (Homo sapiens, UniProt P50613)
T7 construct: purchased ProQinase (Freiburg, Germany)
Experimental: as §1

TRKB = molecular target: T8, TRKB (Homo sapiens, UniProt Q16620)
T8 construct: purchased ProQinase (Freiburg, Germany)
Experimental: as §1

GRK7 = molecular target: T9, GRK7 (Homo sapiens, UniProt Q8WTQ7)
T9 construct: purchased ProQinase (Freiburg, Germany)
T9 sequence (Q8WTQ7 1-553): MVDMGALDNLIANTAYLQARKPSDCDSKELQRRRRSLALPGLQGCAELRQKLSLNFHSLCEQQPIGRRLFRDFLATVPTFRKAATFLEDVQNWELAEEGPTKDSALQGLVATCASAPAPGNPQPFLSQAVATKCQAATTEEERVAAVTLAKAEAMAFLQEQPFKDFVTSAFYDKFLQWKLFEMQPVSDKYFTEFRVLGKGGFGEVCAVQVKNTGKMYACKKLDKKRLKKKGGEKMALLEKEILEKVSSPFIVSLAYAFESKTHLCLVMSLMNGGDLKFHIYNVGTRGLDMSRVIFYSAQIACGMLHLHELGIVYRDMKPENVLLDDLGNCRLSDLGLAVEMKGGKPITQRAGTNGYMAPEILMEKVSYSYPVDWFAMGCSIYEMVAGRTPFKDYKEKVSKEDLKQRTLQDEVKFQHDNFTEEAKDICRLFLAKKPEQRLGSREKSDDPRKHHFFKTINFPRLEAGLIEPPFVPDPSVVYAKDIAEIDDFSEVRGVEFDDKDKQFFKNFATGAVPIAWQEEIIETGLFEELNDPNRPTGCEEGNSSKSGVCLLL
Experimental: as §1

IRAK4 = molecular target: T10, IRAK4 (Homo sapiens, UniProt Q9NWZ3)
T10 construct: purchased ProQinase (Freiburg, Germany)
T10 sequence (Q9NWZ3 1-460): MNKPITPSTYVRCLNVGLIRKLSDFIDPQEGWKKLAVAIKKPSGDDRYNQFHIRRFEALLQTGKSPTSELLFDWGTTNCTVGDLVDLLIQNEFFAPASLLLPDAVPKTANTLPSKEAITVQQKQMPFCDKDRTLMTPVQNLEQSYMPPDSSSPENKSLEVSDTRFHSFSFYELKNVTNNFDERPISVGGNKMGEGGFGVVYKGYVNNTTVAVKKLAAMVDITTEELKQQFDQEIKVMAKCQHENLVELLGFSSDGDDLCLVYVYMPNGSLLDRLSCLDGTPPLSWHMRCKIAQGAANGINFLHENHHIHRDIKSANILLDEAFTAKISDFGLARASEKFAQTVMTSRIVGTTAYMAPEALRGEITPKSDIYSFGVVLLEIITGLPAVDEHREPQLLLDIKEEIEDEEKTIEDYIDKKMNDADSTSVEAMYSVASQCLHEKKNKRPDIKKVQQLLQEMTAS
Experimental: as §1

CDK20/CycT1 = molecular target: T11, CDK20/CycT1 (Homo sapiens, UniProt Q8IZL9)
T11 construct: purchased ProQinase (Freiburg, Germany)
Experimental: as §1

MAPKAPK3 = molecular target: T12, MAPKAPK3 (Homo sapiens, UniProt Q16644)
T12 construct: purchased ProQinase (Freiburg, Germany)
Experimental: as §1

SNK = molecular target: T13, SNK (Homo sapiens, UniProt Q9NYY3)
T13 construct: purchased ProQinase (Freiburg, Germany)
Experimental: as §1

T11 sequence (Q8IZL9 whole entry): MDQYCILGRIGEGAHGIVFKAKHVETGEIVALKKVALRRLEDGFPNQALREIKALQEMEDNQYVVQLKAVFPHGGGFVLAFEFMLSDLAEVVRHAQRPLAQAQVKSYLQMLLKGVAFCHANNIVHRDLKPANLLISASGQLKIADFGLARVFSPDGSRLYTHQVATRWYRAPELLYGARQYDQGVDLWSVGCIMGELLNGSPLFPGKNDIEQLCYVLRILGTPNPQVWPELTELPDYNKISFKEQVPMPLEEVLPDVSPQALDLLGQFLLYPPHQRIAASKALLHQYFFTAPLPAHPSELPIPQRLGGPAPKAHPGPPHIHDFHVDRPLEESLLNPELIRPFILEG
T11 sequence (O60563 whole entry partner): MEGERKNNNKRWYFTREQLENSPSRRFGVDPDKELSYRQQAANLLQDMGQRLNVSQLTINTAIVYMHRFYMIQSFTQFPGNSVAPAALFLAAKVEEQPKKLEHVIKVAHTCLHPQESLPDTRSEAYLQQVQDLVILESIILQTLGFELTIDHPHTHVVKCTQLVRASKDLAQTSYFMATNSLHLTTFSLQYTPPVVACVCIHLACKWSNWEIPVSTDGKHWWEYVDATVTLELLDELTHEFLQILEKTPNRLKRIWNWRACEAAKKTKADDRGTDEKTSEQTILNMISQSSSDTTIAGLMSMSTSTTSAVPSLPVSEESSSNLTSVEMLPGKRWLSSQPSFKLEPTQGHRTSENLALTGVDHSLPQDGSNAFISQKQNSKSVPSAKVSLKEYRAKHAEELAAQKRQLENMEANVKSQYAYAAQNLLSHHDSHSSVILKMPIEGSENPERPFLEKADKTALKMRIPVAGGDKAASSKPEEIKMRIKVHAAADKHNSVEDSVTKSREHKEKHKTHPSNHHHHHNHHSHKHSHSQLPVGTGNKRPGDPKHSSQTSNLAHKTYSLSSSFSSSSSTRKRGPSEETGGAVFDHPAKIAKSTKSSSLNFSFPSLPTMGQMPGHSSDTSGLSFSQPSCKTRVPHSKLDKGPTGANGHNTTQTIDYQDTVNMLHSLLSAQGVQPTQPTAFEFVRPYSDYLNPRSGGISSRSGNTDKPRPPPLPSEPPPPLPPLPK
T1 sequence (P06213 28-1382): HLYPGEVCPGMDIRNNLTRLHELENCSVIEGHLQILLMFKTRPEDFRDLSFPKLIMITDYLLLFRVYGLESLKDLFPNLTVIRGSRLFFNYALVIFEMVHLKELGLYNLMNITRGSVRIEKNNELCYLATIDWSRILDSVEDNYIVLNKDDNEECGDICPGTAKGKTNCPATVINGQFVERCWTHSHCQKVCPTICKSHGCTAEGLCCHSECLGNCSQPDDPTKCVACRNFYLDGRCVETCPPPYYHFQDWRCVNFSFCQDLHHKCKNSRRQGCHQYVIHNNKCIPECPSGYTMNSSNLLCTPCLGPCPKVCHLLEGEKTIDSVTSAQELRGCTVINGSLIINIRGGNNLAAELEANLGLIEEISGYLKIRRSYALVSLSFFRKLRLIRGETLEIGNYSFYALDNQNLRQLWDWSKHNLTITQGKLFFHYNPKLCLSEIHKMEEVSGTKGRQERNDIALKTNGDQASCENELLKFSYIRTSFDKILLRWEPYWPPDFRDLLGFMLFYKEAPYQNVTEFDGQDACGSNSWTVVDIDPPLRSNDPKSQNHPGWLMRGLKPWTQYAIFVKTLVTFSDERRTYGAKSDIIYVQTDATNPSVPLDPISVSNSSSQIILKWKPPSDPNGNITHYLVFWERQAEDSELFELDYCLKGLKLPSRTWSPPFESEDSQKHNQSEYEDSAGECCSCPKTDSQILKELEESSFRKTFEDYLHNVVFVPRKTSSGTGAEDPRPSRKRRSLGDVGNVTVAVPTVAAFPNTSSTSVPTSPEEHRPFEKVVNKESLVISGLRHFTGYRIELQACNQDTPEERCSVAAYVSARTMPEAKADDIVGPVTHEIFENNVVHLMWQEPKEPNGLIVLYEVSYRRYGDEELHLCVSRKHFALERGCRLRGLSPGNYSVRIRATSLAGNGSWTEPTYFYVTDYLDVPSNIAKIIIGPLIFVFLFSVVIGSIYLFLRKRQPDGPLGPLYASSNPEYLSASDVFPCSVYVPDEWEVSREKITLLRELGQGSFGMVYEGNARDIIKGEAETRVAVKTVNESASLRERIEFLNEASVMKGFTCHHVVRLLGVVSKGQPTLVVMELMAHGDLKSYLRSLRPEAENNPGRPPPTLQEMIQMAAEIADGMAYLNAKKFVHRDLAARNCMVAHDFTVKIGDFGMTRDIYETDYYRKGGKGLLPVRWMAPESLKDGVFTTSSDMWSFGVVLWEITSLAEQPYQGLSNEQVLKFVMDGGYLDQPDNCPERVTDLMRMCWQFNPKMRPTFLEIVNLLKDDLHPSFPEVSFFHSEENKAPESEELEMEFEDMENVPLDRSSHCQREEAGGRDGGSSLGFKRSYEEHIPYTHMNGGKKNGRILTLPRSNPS
T13 sequence (Q9NYY3 whole entry): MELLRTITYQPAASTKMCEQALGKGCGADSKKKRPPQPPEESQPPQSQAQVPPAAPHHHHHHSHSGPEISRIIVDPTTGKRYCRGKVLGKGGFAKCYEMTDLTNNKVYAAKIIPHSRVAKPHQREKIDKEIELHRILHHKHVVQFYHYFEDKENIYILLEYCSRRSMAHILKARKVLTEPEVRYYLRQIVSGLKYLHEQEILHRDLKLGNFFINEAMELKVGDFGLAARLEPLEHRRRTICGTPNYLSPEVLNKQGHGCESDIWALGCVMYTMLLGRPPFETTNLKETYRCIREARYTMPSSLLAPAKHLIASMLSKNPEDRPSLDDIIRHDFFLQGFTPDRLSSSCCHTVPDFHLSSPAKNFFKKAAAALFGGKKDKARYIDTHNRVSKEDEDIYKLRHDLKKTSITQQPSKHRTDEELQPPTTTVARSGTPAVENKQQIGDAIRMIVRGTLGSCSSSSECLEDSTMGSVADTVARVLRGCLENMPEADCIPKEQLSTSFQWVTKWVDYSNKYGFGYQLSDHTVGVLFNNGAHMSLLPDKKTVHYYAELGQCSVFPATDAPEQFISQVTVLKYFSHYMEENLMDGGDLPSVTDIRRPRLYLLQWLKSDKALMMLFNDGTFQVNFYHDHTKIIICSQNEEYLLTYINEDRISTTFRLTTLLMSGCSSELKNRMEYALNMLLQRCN
T12 sequence (Q16644 whole entry): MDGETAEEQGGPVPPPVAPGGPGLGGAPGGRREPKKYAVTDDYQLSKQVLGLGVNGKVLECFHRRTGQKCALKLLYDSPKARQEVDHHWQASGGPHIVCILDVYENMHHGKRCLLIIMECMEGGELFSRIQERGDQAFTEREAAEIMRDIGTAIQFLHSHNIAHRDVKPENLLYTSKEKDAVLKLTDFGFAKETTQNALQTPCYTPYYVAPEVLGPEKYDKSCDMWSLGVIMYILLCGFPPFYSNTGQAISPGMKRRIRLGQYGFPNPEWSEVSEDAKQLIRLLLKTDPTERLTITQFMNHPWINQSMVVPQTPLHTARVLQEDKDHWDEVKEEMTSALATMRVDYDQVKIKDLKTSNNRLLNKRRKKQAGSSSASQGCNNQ
T6 sequence (O43353 whole entry): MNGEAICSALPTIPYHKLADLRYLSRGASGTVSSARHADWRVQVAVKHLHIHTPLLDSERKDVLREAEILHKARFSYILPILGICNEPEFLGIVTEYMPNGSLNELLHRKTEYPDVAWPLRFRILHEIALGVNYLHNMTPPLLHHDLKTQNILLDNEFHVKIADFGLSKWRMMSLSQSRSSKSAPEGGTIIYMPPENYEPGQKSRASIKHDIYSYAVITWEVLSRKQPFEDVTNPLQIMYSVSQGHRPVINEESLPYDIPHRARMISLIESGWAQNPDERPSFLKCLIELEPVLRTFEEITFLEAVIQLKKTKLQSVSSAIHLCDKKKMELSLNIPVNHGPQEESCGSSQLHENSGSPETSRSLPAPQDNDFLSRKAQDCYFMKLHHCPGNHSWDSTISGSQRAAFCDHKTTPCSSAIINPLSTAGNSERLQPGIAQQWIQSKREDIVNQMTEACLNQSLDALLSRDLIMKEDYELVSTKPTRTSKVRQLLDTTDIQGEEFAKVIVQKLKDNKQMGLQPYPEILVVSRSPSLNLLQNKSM
T8 sequence (Q16620 32-822): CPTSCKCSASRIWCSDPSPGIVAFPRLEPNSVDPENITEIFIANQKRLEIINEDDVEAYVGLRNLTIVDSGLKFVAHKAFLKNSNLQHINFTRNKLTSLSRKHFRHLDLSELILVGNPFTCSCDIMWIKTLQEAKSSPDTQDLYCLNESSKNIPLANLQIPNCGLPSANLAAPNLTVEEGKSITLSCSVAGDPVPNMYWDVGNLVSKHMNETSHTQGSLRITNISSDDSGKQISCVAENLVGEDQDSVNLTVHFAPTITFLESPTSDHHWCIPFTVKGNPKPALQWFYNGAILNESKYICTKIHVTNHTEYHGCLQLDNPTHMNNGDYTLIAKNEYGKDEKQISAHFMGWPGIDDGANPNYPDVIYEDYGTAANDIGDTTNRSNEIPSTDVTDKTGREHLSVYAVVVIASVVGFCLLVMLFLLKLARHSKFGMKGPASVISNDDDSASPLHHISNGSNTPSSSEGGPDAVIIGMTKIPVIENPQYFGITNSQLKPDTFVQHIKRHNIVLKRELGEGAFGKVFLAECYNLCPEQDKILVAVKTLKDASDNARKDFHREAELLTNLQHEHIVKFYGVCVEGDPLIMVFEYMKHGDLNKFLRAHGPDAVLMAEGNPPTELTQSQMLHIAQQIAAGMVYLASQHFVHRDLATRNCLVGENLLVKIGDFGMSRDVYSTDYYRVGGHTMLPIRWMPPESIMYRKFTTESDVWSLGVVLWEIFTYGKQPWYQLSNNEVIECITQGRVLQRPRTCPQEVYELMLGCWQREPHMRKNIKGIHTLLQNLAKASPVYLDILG

Row | SMILES | Residual activity (INSR; 1.0E-05 M) | Residual activity (INSR; 1.0E-06 M) | Residual activity (MKK7; 1.0E-05 M) | Residual activity (MKK7; 1.0E-06 M) | Residual activity (WNK3; 1.0E-05 M) | Residual activity (WNK3; 1.0E-06 M) | Residual activity (BRK; 1.0E-05 M) | Residual activity (BRK; 1.0E-06 M) | Residual activity (PKCiota; 1.0E-05 M) | Residual activity (PKCiota; 1.0E-06 M) | Residual activity (RIPK2; 1.0E-05 M) | Residual activity (RIPK2; 1.0E-06 M) | Residual activity (CDK7/CycH/MAT1; 1.0E-05 M) | Residual activity (CDK7/CycH/MAT1; 1.0E-06 M) | Residual activity (TRKB; 1.0E-05 M) | Residual activity (TRKB; 1.0E-06 M) | Residual activity (GRK7; 1.0E-05 M) | Residual activity (GRK7; 1.0E-06 M) | Residual activity (IRAK4; 1.0E-05 M) | Residual activity (IRAK4; 1.0E-06 M) | further results
1 | O=C(Nc1ccc(F)c(Nc2ccc3c(c2)CCCCC3=O)c1)c1cccc(F)c1 [Compound 109] | 84 % of control | 95 % of control | 90 % of control | 84 % of control | 104 % of control | 93 % of control | 84 % of control | 105 % of control | 77 % of control | 82 % of control | 84 % of control | 99 % of control | 92 % of control | 89 % of control | 92 % of control | 101 % of control | 116 % of control | 108 % of control | 93 % of control | 92 % of control | Residual activity (CDK20/CycT1; 1.0E-05 M): 101 % of control; Residual activity (CDK20/CycT1; 1.0E-06 M): 96 % of control; Residual activity (MAPKAPK3; 1.0E-05 M): 65 % of control; Residual activity (MAPKAPK3; 1.0E-06 M): 98 % of control; Residual activity (SNK; 1.0E-05 M): 92 % of control; Residual activity (SNK; 1.0E-06 M): 94 % of control
2 | O=C(Cc1ccccc1)Nc1ccc(F)c(Nc2ccc3c(c2)CCCCC3=O)c1 [Compound 100] | 92 % of control | 95 % of control | 110 % of control | 101 % of control | 109 % of control | 107 % of control | 106 % of control | 105 % of control | 71 % of control | 94 % of control | 89 % of control | 104 % of control | 83 % of control | 94 % of control | 74 % of control | 105 % of control | 123 % of control | 121 % of control | 100 % of control | 97 % of control | Residual activity (CDK20/CycT1; 1.0E-05 M): 92 % of control; Residual activity (CDK20/CycT1; 1.0E-06 M): 98 % of control; inhibition at 10 µM (MAPKAPK3; 10 µM): ≥ 50%; Residual activity (MAPKAPK3; 1.0E-05 M): 50 % of control; Residual activity (MAPKAPK3; 1.0E-06 M): 109 % of control; Residual activity (SNK; 1.0E-05 M): 90 % of control; Residual activity (SNK; 1.0E-06 M): 102 % of control
